Results on one compound are retold here after patent US20070270462A1, “8-hydroxyquinoline compounds for treating a polyglutamine (polyQ)-expansion disease” (priority 2005, published 2007).

Marks after values point to notes of the source that are not given here.

One series has as its system Htt exon1-Q25-egfp. The series is described as follows: Fluorescence microscopy of transfected PC12 cells expressing Htt exon1-Q25-egfp. Format: cell-based. The following applies: CQ 4 μM, 48 hours post-transfection. An excerpt: PolyQ-htt-GFP fusion constructs, in which the polyglutamine region is encoded by CAA and CAG-containing tandem repeats ([…]) [SEQ ID NO: 1], human polyglutaminen, were obtained from the Hereditary Disease Foundation, Santa Monica, Calif., USA. PC12 and HEK293 cells were maintained in MEM supplemented with 10% v/v FBS, switched to Opti-MEM without serum for 6 hrs during transfection using Lipofectamine 2000 (Invitrogen, Carlsbad, Calif., USA), and returned to serum-containing medium thereafter (up to 48 hours). […] Control cultures received equivalent amounts of DMSO-containing vehicle (<0.1% w/v DMSO, final concentration).
Concordant with this reduction in mutant protein expression, cell survival was improved by CQ in a dose dependent fashion with a half maximal effect at 1-2 μM (FIG. 2b). Cell death began to increase at 8 μM, likely due to dose-dependent toxic effects of CQ.

For series [1], the system named is R6/2 mice. The series is described as follows: Lifespan (survival) of R6/2 mice. Format: in vivo, mouse. The settings on record: oral CQ 30 mg/kg/day. Here is the method: A colony of transgenic mice strain R6/2 that is heterozygous for htt exon1 (containing 145 CAG repeats) was maintained, with founders originating and available from The Jackson Laboratory (Bar Harbor, Me., USA). Male transgenic R6/2 mice were bred with background strain (B6CBAFI/J) females. Genotyping was done according to Hockly et al, Brain Res Bull 61, 469-479, 2003. CQ in water was orally administered to mice at 30 mg/kg/day starting at 3 weeks of age and continued until the mice were deceased or sacrificed for tissues. Littermate R6/2 mice were gavaged with water vehicle alone. At the end of CQ treatment mice were anesthetized and transcardially perfused with PBS followed by 4% v/v paraformaldehyde. Blood glucose levels were determined after at least 8 hrs of fasting in 11-week old mice (n=6 for wild-type, n=4 for vehicle-treated R6/2, n=6 for CQ-treated R6/2 littermates) using a 2300 STAT Plus glucose analyzer (YSI, Yellowsonte, Ohio, USA). Fasting blood insulin levels in animals fasted for 8 hrs were measured using an Ultra Sensitive Rat Insulin ELISA Kit (Crystal Chem, Inc., Downers Grove, Ill., USA) according to manufacturer's instructions. […]

Series [2] deals with R6/2 mice. The series is described as follows: Fasting blood insulin in R6/2 mice (ELISA). Format: in vivo, mouse. The settings on record: 11-week old R6/2 mice. Here is the method: A colony of transgenic mice strain R6/2 that is heterozygous for htt exon1 (containing 145 CAG repeats) was maintained, with founders originating and available from The Jackson Laboratory (Bar Harbor, Me., USA). Male transgenic R6/2 mice were bred with background strain (B6CBAFI/J) females. Genotyping was done according to Hockly et al, Brain Res Bull 61, 469-479, 2003. CQ in water was orally administered to mice at 30 mg/kg/day starting at 3 weeks of age and continued until the mice were deceased or sacrificed for tissues. Littermate R6/2 mice were gavaged with water vehicle alone. At the end of CQ treatment mice were anesthetized and transcardially perfused with PBS followed by 4% v/v paraformaldehyde. Blood glucose levels were determined after at least 8 hrs of fasting in 11-week old mice (n=6 for wild-type, n=4 for vehicle-treated R6/2, n=6 for CQ-treated R6/2 littermates) using a 2300 STAT Plus glucose analyzer (YSI, Yellowsonte, Ohio, USA). Fasting blood insulin levels in animals fasted for 8 hrs were measured using an Ultra Sensitive Rat Insulin ELISA Kit (Crystal Chem, Inc., Downers Grove, Ill., USA) according to manufacturer's instructions.
Consistent with the blood glucose level was a reciprocal change in blood insulin levels.
Data are mean+s.e.m. n≧4 for each treatment group. *P<0.0004 for glucose, **P=0.0065 for insulin levels comparing vehicle and CQ-treated groups.
On the technique in general: An ELISA detects its analyte on a solid surface through an enzyme-linked reagent.

A further series relates to YAC72 mice. Format: in vivo. An excerpt:
Lower dosages need to be investigated to determine if such doses improve the effect. […] Moreover, since the drug is given as a single daily dose in a water suspension, it is possible that the window of time in which the blood levels are therapeutic may be small, perhaps only a few hours a day. To address these issues, it is proposed to use the R6/2 short term model for a dose-response study and then examine the effects of treatment on the longer term, milder YAC72 model. YAC72 animals carry a portion of a yeast artificial chromosome (YAC) bearing a full-length human htt gene (including the promoter) that is modified with a 72 CAG repeat expansion in exon 1. […]
CQ is delivered blended into food pellets with vitamin B12 supplementation. […] In addition, it is determined what is the average rate of consumption and fluctuations in consumption rate through the course of the day. These parameters are measured periodically in test subjects as well, to allow adjustment of dosing for body weight and food intake. […] Animals are evaluated for a variety of parameters including clasping, rotarod performance, body weight, and survival, and animals are sacrificed at 12 weeks for western and immunohistochemical analysis of huntingtin fragment accumulation and striatal atrophy. […]

Turning to `Oc1c(I)cc(Cl)c2cccnc12` [CQ, 5-chloro-7-iodo-8-hydroxy-quinoline], the “fluorescent product of Htt exon1-Q25-egfp” value in the series with Htt exon1-Q25-egfp is recorded as “unaffected”. Moreover, in the series on R6/2 mice [1], the average lifespan amounted to 92 days and the “increase in longevity over the littermate control group” value was 20%. This compound also had a fasting blood insulin level in the series with R6/2 mice [2] (CQ treated group) of 415 ± 54.6 pg/mL. Besides, in the series on R6/2 mice [2] (fasting, CQ-treated, mean ± s.e.m. (Table 3)), the Insulin level is reported as 415 ± 54.60** pg/ml. The “behavioral and pathologic features” value in the series with YAC72 mice (YAC72 mice, chronic CQ with B12 supplementation) was “significantly mitigate the behavioral and pathologic features”. In the series with YAC72 mice (mouse, in vivo), the “tolerability of chronic CQ administration” value is listed as “well tolerated”.
